Laboratory results: article PMC2857964 (Bioorganic & medicinal chemistry letters, 2010)

Molecular target: hMC4R (Homo sapiens, UniProt P32245)
Assay: Saturation binding of Eu-labeled probe to Hek293 cells overexpressing hMC4R
Conditions: Kd of labeled ligand compared with parental ligand MSH(4)

Sequence of hMC4R (P32245 whole entry): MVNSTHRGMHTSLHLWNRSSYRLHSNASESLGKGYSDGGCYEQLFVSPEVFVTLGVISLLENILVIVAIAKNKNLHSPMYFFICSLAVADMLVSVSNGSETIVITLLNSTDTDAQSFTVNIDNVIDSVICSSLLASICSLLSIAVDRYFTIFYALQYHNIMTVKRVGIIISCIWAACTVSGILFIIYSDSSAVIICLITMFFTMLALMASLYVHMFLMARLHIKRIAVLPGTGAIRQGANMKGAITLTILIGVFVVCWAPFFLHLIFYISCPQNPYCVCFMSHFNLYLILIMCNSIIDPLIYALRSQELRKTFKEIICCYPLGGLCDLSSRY

## N=C(N)NCCC[C@H](NC(=O)[C@@H](Cc1ccccc1)NC(=O)[C@H](Cc1c[nH]cn1)NC(=O)COCC(=O)NCCCOCCOCCOCCCNC(=O)CN(CCN(CCN(CC(=O)O)CC(=O)O)CC(=O)O)CC(=O)O)C(=O)N[C@@H](Cc1c[nH]c2ccccc12)C(N)=O [compound 1, Eu-DTPA-PEGO-His-DPhe-Arg-Trp-NH2]
  Affinity for hMC4R, fold lower than the parental ligand: approximately 10 fold
